Reference: ChEMBL document CHEMBL2150989, “Effect of phospholipid-based formulations of Boswellia serrata extract on the solubility, permeability, and absorption of the individual boswellic acid constituents present” (J Nat Prod, 2012)
≈ marks a conversion by molar mass, not a printed value.

Experiments:
Plasma [1] = assay: Plasma concentration in rat at 240 mg/kg, po administered using compound, Lipoid S100 and pluronic f127 ratio 1:1:1 formulation relative to non-formulated compound after 4 to 6 hrs; assay type: ADME, organism-based; design: dose 240 mg/kg, route oral; settings: in vivo
Brain [2] = assay: Drug level in rat brain at 240 mg/kg, po; assay type: ADME, organism-based; design: dose 240 mg/kg, route oral; settings: in vivo
Brain [3] = assay: Drug level in rat brain at 240 mg/kg, po administered using compound, Lipoid S100 and pluronic f127 ratio 1:1:1 formulation; assay type: ADME, organism-based; design: dose 240 mg/kg, route oral; settings: in vivo
[4] = Ratio drug level in brain to plasma of rat at 240 mg/kg, po after 8 hrs; assay type: ADME, organism-based; design: dose 240 mg/kg, route oral; settings: brain and plasma, read-out: BPR
[5] = Ratio drug level in brain to plasma of rat at 240 mg/kg, po administered using compound, Lipoid S100 and pluronic f127 ratio 1:1:1 formulation after 8 hrs; assay type: ADME, organism-based; design: dose 240 mg/kg, route oral; settings: read-out: BPR
[6] = Solubility of the compound in fed state simulated intestinal fluid at compound to Lipoid S100 ratio 1:3 after 3 hrs by HPLC analysis; assay type: physicochemical
[7] = Solubility of the compound in water at pH 6.5; assay type: physicochemical
[8] = Solubility of the compound in fasted state simulated intestinal fluid at compound to Lipoid S100 ratio 1:1 after 3 hrs by HPLC analysis in presence of 10:1 molar ratio of Lipoid S100 to tween 80; assay type: physicochemical
[9] = Solubility of the compound in fasted state simulated intestinal fluid at compound to Lipoid S100 ratio 1:1 after 3 hrs by HPLC analysis in presence of 5:1 molar ratio of Lipoid S100 to tween 80; assay type: physicochemical
[10] = Solubility of the compound in fasted state simulated intestinal fluid at compound to Lipoid S100 ratio 1:1 after 3 hrs by HPLC analysis in presence of 3:1 molar ratio of Lipoid S100 to tween 80; assay type: physicochemical
[11] = Solubility of the compound in fasted state simulated intestinal fluid at compound to Lipoid S100 ratio 1:3 after 3 hrs by HPLC analysis in presence of 10:1 molar ratio of Lipoid S100 to tween 80; assay type: physicochemical
[12] = Solubility of the compound in fasted state simulated intestinal fluid at compound to Lipoid S100 ratio 1:3 after 3 hrs by HPLC analysis in presence of 5:1 molar ratio of Lipoid S100 to tween 80; assay type: physicochemical
[13] = Solubility of the compound in fasted state simulated intestinal fluid at compound to Lipoid S100 ratio 1:3 after 3 hrs by HPLC analysis in presence of 3:1 molar ratio of Lipoid S100 to tween 80; assay type: physicochemical
Caco-2 = assay: Permeability from apical to basolateral side of human Caco2 cells at compound to Lipoid S100 ratio 1:3 in presence of 5:1 molar ratio of Lipoid S100 to tween 80; assay type: ADME, cell-based; settings: BLD = below limit of detection
[14] = Permeability from apical to basolateral side of human Caco2 cells assessed as mass balance at compound, Lipoid S100 and tween 80 ratio 1:1:1; assay type: ADME, cell-based; settings: Caco-2, read-out: permeability
[15] = Permeability from apical to basolateral side of human Caco2 cells assessed as mass balance at compound to Lipoid S100 ratio 1:1; assay type: ADME, cell-based; settings: Caco-2, read-out: permeability
[16] = Permeability from apical to basolateral side of human Caco2 cells assessed as mass balance at compound, Lipoid S100 and vitamin E-TPGS ratio 1:2:1; assay type: ADME, cell-based; settings: Caco-2, read-out: permeability
[17] = Permeability from apical to basolateral side of human Caco2 cells assessed as mass balance at compound to Lipoid S100 ratio 1:3 in presence of 5:1 molar ratio of Lipoid S100 to tween 80; assay type: ADME, cell-based; settings: Caco-2, read-out: permeability
[18] = Permeability from apical to basolateral side of human Caco2 cells assessed as mass balance at compound to Lipoid S100 ratio 1:3; assay type: ADME, cell-based; settings: Caco-2, read-out: permeability
[19] = Permeability from apical to basolateral side of human Caco2 cells assessed as mass balance at 5 mg/mL; assay type: ADME, cell-based; settings: Caco-2, read-out: permeability
[20] = Permeability from apical to basolateral side of human Caco2 cells assessed as mass balance at compound, Lipoid S100 and vitamin E-TPGS ratio 1:1:1; assay type: ADME, cell-based; settings: Caco-2, read-out: permeability
[21] = Permeability from apical to basolateral side of human Caco2 cells assessed as mass balance at compound, Lipoid S100 and gelucire 44/14 ratio 1:1:1; assay type: ADME, cell-based; settings: Caco-2, read-out: permeability
[22] = Permeability from apical to basolateral side of human Caco2 cells assessed as mass balance at compound, Lipoid S100 and pluronic f68 ratio 1:1:1; assay type: ADME, cell-based; settings: Caco-2, read-out: permeability
[23] = Permeability from apical to basolateral side of human Caco2 cells assessed as mass balance at compound, Lipoid S100 and pluronic f127 ratio 1:1:1; assay type: ADME, cell-based; settings: Caco-2, read-out: permeability
[24] = Solubility of the compound in modified fasted state simulated intestinal fluid at 5 mg/mL after 3 hrs by HPLC analysis; assay type: physicochemical
[25] = Solubility of the compound in HBSS buffer containing 4% bovine serum albumin at 5 mg/mL after 3 hrs by HPLC analysis; assay type: physicochemical
[26] = Solubility of the compound in fasted state simulated intestinal fluid at compound, Lipoid S100 and pluronic f127 ratio 1:1:1 after 3 hrs by HPLC analysis; assay type: physicochemical
[27] = Apparent permeability from apical to basolateral side of human Caco2 cells at compound, Lipoid S100 and pluronic f127 ratio 1:1:1 using modified fasted state simulated intestinal fluid; assay type: ADME, cell-based; settings: Caco-2
[28] = Apparent permeability from apical to basolateral side of human Caco2 cells at compound, Lipoid S100 and pluronic f127 ratio 1:1:1 using modified fed state simulated intestinal fluid; assay type: ADME, cell-based; settings: Caco-2
[29] = Apparent permeability from apical to basolateral side of human Caco2 cells at compound, Lipoid S100 and pluronic f127 ratio 1:1:1 using HBSS buffer; assay type: ADME, cell-based; settings: Caco-2
Plasma [30] = assay: Plasma concentration in rat at 240 mg/kg, po administered using compound, Lipoid S100 and pluronic f127 ratio 1:1:1 formulation relative to non-formulated compound after 2 hrs; assay type: ADME, organism-based; design: dose 240 mg/kg, route oral; settings: in vivo
Plasma [31] = assay: Plasma concentration in rat at 240 mg/kg, po administered using compound, Lipoid S100 and pluronic f127 ratio 1:1:1 formulation relative to non-formulated compound after 8 hrs; assay type: ADME, organism-based; design: dose 240 mg/kg, route oral; settings: in vivo
[32] = Solubility of the compound in water at 5 mg/mL after 3 hrs by HPLC analysis; assay type: physicochemical
[33] = Solubility of the compound in fasted state simulated intestinal fluid at 5 mg/mL after 3 hrs by HPLC analysis; assay type: physicochemical
[34] = Solubility of the compound in fed state simulated intestinal fluid at 5 mg/mL after 3 hrs by HPLC analysis; assay type: physicochemical
[35] = Solubility of the compound in water at compound to Lipoid S100 ratio 1:1 after 3 hrs by HPLC analysis; assay type: physicochemical
[36] = Solubility of the compound in fasted state simulated intestinal fluid at compound to Lipoid S100 ratio 1:1 after 3 hrs by HPLC analysis; assay type: physicochemical
[37] = Solubility of the compound in fed state simulated intestinal fluid at compound to Lipoid S100 ratio 1:1 after 3 hrs by HPLC analysis; assay type: physicochemical
[38] = Solubility of the compound in water at compound to Lipoid S100 ratio 1:3 after 3 hrs by HPLC analysis; assay type: physicochemical
[39] = Solubility of the compound in fasted state simulated intestinal fluid at compound to Lipoid S100 ratio 1:3 after 3 hrs by HPLC analysis; assay type: physicochemical
Plasma [40] = assay: Plasma concentration in rat at 240 mg/kg, po administered using compound, Lipoid S100 and pluronic f127 ratio 1:1:1 formulation; assay type: ADME, organism-based; design: dose 240 mg/kg, route oral; settings: in vivo
Prostaglandin E synthase = target: T1, Prostaglandin E synthase (Homo sapiens, UniProt O14684); assay: Inhibition of mPGES1
T1 sequence (O14684 whole entry): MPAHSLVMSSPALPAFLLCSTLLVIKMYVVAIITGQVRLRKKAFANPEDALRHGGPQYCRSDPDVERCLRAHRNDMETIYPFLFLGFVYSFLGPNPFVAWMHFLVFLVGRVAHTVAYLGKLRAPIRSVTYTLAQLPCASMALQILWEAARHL

fold change (FC) (Plasma [1])	Drug uptake (Brain [2])	Drug uptake (Brain [3])	Kp at 8 h [4]	Kp at 8 h [5]	solubility at 3 h [6]	solubility [7]	solubility at 3 h [8]	solubility at 3 h [9]	solubility at 3 h [10]	solubility at 3 h [11]	solubility at 3 h [12]	solubility at 3 h [13]	permeability (Caco-2)	recovery [14]	recovery [15]	recovery [16]	recovery [17]	recovery [18]	recovery at 5 mg/mL [19]	SMILES	also measured
26	163.7 ng/g	156.1 ng/g																		CC(=O)O[C@@H]1CC[C@@]2(C)[C@@H](CC[C@]3(C)[C@@H]2CC=C2[C@@H]4[C@@H](C)[C@H](C)CC[C@]4(C)CC[C@]23C)[C@@]1(C)C(=O)O	
26	1066.6 ng/g	5908.2 ng/g	0.2	5.5																C[C@H]1[C@H](C)CC[C@]2(C)CC[C@]3(C)C(=CC[C@@H]4[C@@]5(C)CC[C@@H](O)[C@](C)(C(=O)O)[C@@H]5CC[C@]43C)[C@H]12 [BOSWELLIC ACID]	IC50 (Prostaglandin E synthase): 5 µM

More lines, now with the values behind:

SMILES	fold change (FC) (Plasma [1])	Drug uptake (Brain [2])	Drug uptake (Brain [3])	Kp at 8 h [4]	Kp at 8 h [5]	solubility at 3 h [6]	solubility [7]	solubility at 3 h [8]	solubility at 3 h [9]	solubility at 3 h [10]	solubility at 3 h [11]	solubility at 3 h [12]	solubility at 3 h [13]	permeability (Caco-2)	recovery [14]	recovery [15]	recovery [16]	recovery [17]	recovery [18]	recovery at 5 mg/mL [19]	also measured
CC(=O)O[C@@H]1CC[C@@]2(C)[C@@H](CC[C@]3(C)[C@@H]2CC=C2[C@@H]4CC(C)(C)CC[C@]4(C)CC[C@]23C)[C@@]1(C)C(=O)O	26	43 ng/g	60.1 ng/g																		
CC1(C)CC[C@]2(C)CC[C@]3(C)C(=CC[C@@H]4[C@@]5(C)CC[C@@H](O)[C@](C)(C(=O)O)[C@@H]5CC[C@]43C)[C@@H]2C1	26	485.1 ng/g	2443.9 ng/g	0.18	4.4																
C[C@H]1[C@H](C)CC[C@]2(C)CC[C@]3(C)C(=CC(=O)[C@@H]4[C@@]5(C)CC[C@@H](O)[C@](C)(C(=O)O)[C@@H]5CC[C@]43C)[C@H]12 [11-KETO BOSWELLIC ACID]		11.6 ng/g	13.6 ng/g			183 µg/mL	73.1 µg/mL (≈ 155 µM)	78.2 µg/mL	109 µg/mL	164 µg/mL	246 µg/mL	293 µg/mL	400 µg/mL	BLD	96.3%	93.9%	99.8%	102%	96%	101%	recovery [20]: 101%; recovery [21]: 92%; recovery [22]: 90.1%; recovery [23]: 99.9%; solubility at 3 h [24]: 17 µg/mL (≈ 36.1 µM); solubility at 3 h [25]: 17.5 µg/mL (≈ 37.1 µM); solubility at 3 h [26]: 395 µg/mL; Papp A→B [27]: 3.7 ×10⁻⁶ cm/s; Papp A→B [28]: 3.2 ×10⁻⁶ cm/s; Papp A→B [29]: 2.9 ×10⁻⁶ cm/s; fold change (FC) (Plasma [30]): 26; fold change (FC) (Plasma [31]): 6; solubility at 3 h [32]: 1.16 µg/mL (≈ 2.46 µM); solubility at 3 h [33]: 15.9 µg/mL (≈ 33.8 µM); solubility at 3 h [34]: 73.1 µg/mL (≈ 155 µM); solubility at 3 h [35]: 5.18 µg/mL; solubility at 3 h [36]: 124 µg/mL; solubility at 3 h [37]: 252 µg/mL; solubility at 3 h [38]: 192 µg/mL; solubility at 3 h [39]: 151 µg/mL
CC(=O)O[C@@H]1CC[C@@]2(C)[C@@H](CC[C@]3(C)[C@@H]2C(=O)C=C2[C@@H]4[C@@H](C)[C@H](C)CC[C@]4(C)CC[C@]23C)[C@@]1(C)C(=O)O [AKBA]		37.5 ng/g	203.8 ng/g	0.07	2.2	35.8 µg/mL	> 60 µg/mL	13.4 µg/mL	18.2 µg/mL	27.6 µg/mL	44.7 µg/mL	59.5 µg/mL	69.5 µg/mL	BLD	93.3%	88.3%	98%	104%	96.4%	95.2%	recovery [20]: 98.8%; recovery [21]: 90.7%; recovery [22]: 87.8%; recovery [23]: 101%; solubility at 3 h [26]: 65.3 µg/mL; Papp A→B [27]: 3.1 ×10⁻⁶ cm/s; Papp A→B [28]: 2.8 ×10⁻⁶ cm/s; Papp A→B [29]: 2.5 ×10⁻⁶ cm/s; fold change (FC) (Plasma [30]): 14; fold change (FC) (Plasma [31]): 6; concentration (Plasma [40]): 1700 nM; solubility at 3 h [32]: 0.2 µg/mL (≈ 0.39 µM); solubility at 3 h [33]: 3.05 µg/mL (≈ 5.95 µM); solubility at 3 h [34]: 13.2 µg/mL (≈ 25.8 µM); solubility at 3 h [35]: 0.87 µg/mL; solubility at 3 h [36]: 24.2 µg/mL; solubility at 3 h [37]: 48 µg/mL; solubility at 3 h [38]: 51.4 µg/mL; solubility at 3 h [39]: 29.7 µg/mL
